Assay [1] deals with T1, DNA topoisomerase 1 (Homo sapiens) (UniProt P11387).
T1 sequence (whole entry): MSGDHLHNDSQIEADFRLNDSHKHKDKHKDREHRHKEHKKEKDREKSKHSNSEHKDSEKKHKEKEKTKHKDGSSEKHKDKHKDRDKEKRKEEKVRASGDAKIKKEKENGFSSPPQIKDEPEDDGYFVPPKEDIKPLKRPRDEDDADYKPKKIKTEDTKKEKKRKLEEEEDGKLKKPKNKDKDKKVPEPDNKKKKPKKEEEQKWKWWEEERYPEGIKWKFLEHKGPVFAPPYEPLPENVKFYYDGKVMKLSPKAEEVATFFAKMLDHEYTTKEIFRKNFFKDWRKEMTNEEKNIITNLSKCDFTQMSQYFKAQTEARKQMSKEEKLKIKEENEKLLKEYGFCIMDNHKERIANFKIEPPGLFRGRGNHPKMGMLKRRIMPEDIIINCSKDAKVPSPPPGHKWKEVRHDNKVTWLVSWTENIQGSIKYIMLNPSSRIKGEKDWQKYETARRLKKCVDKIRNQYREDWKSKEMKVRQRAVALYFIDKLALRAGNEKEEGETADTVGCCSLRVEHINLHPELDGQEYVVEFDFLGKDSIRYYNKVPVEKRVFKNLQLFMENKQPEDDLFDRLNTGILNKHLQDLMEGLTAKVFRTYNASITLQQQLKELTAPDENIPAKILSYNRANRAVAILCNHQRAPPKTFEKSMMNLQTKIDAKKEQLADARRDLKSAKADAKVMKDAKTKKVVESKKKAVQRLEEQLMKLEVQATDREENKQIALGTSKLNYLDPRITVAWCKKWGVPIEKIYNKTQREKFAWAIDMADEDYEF
Description: Inhibition of recombinant Top1 (unknown origin) assessed as inhibition of relaxation of supercoiled pBR322 plasmid DNA at 100 uM incubated for 15 mins by ethidium bromide staining based agarose gel electrophoresis analysis.

The target of assay [2] is DNA topoisomerase 2-alpha (Homo sapiens) (UniProt P11388). As to the kind of experiment: Inhibition of recombinant Top2 (unknown origin) assessed as inhibition of relaxation of supercoiled pBR322 plasmid DNA at 50 uM incubated for 15 mins by ethidium bromide staining based agarose gel electrophoresis analysis.
Another assay concerns the target Histone deacetylase 1 (Homo sapiens, UniProt Q13547). As to the kind of experiment: Inhibition of full-length recombinant human HDAC1 expressed in Baculovirus expression system using Ac-Leu-Gly-Lys(Ac)-AMC as substrate preincubated for 5 mins followed by substrate addition and further incubated for 30 mins by fluorescence based microtiter plate reader assay.
The subject of the next assay is MCF7. As to the kind of experiment: Antiproliferative activity against human MCF7 cells assessed as cell growth inhibition incubated for 8 hrs by CCK8 assay. The assay is classed as functional, cell-based. The note with it: MCF7, 8 h.
The next assay deals with A549. As to the kind of experiment: Antiproliferative activity against human A549 cells assessed as cell growth inhibition incubated for 8 hrs by CCK8 assay. The assay is classed as functional, cell-based. The settings on record: A549, 8 h.
A further assay relates to HCT-116. Description: Antiproliferative activity against human HCT-116 cells assessed as cell growth inhibition incubated for 8 hrs by CCK8 assay. The assay is classed as functional, cell-based. The settings on record: HCT-116, 8 h.
Another assay concerns HepG2. As to the kind of experiment: Antiproliferative activity against human HepG2 cells assessed as cell growth inhibition incubated for 8 hrs by CCK8 assay. Format: functional, cell-based. The settings on record: HepG2, 8 h.
The subject of the next assay is K562. As to the kind of experiment: Antiproliferative activity against human K562 cells assessed as cell growth inhibition incubated for 8 hrs by CCK8 assay. Format: functional, cell-based. The note with it: K562, 8 h.
A further assay has as its system HEL. As to the kind of experiment: Antiproliferative activity against HEL cells assessed as cell growth inhibition incubated for 8 hrs by CCK8 assay. The settings on record: Homo sapiens. The assay is classed as functional, cell-based.
The target in assay [3] is DNA topoisomerase 2-alpha (Homo sapiens) (UniProt P11388). Description: Inhibition of recombinant Top2 (unknown origin) assessed as inhibition of relaxation of supercoiled pBR322 plasmid DNA at 100 uM incubated for 15 mins by ethidium bromide staining based agarose gel electrophoresis analysis.

pIC50: −log10 of the molar value. Active and inactive are the calls of the source. The calls are words filed in the database; no cut-off is given here.

Histone deacetylase 1, sequence (Q13547 whole entry): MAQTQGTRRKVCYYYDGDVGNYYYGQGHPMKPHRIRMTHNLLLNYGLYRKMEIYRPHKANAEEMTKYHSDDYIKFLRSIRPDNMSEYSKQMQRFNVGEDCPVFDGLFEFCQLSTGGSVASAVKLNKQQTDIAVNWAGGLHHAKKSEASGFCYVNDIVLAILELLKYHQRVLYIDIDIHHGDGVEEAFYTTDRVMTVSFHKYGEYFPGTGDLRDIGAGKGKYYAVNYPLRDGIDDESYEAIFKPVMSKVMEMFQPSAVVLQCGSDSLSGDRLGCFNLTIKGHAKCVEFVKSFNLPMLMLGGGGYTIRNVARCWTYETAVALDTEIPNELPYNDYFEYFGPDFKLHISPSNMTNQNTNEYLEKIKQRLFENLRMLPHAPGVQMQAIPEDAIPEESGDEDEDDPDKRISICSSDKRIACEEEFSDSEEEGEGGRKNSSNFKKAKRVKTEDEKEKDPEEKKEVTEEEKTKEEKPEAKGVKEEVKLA
DNA topoisomerase 2-alpha (Homo sapiens), sequence (P11388 whole entry): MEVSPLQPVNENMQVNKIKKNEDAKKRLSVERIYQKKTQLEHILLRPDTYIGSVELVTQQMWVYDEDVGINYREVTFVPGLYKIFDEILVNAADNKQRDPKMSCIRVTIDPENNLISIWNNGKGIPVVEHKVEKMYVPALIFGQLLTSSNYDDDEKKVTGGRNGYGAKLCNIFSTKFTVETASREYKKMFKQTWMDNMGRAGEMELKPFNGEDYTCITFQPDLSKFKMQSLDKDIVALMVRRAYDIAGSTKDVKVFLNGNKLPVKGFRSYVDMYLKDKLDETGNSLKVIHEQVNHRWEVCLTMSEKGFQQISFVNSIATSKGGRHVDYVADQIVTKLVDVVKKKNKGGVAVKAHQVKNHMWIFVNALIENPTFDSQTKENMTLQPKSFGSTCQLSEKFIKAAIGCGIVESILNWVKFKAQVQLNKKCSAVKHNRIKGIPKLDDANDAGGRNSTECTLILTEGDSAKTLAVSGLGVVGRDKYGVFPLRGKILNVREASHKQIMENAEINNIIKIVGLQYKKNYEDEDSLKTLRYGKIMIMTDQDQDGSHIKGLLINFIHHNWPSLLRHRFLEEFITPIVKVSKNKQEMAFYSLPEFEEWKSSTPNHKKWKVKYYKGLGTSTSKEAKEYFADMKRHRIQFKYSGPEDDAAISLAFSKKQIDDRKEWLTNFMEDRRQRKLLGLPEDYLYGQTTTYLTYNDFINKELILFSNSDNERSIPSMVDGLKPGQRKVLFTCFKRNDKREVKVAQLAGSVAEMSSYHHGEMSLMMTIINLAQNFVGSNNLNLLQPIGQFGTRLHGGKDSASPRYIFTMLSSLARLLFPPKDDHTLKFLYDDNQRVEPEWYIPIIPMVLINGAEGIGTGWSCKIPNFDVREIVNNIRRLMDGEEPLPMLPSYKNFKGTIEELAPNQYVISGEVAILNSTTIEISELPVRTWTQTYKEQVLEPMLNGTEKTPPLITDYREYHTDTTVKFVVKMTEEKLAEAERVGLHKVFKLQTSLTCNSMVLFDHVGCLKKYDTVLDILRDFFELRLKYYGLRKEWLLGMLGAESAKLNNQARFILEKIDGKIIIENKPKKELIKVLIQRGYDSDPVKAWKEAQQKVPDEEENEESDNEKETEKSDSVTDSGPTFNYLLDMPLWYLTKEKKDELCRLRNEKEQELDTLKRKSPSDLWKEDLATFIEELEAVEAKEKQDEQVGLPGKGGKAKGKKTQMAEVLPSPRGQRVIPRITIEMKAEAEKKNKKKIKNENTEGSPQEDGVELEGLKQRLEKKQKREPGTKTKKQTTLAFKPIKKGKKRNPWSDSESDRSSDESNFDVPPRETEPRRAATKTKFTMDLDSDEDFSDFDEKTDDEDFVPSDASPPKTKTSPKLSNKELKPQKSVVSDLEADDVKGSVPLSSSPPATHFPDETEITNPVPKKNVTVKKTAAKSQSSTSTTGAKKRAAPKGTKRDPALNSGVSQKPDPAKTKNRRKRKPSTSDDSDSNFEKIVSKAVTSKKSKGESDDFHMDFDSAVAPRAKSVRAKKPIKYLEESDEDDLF

As for `CN1c2ccc(F)cc2C(=O)N2CCc3c([nH]c4ccc(OCCCCCCC(=O)Nc5ccccc5N)cc34)C21` (stereo not drawn), the inhibition entry in assay [1], in assay [2] and in assay [3] was “Active” throughout. Also, the pIC50 at Histone deacetylase 1 is 7.60; in the assay on MCF7 it was 6.08; with A549, 6.09; with HCT-116, under 5.70; with HepG2 it was 5.90; in the assay with K562, 5.86. Besides, the pIC50 in the assay with HEL was 5.73.

As for `CN1c2ccc(F)cc2C(=O)N2CCc3c([nH]c4ccc(OCCCC(=O)NO)cc34)C21` (stereo not drawn), the inhibition result in [1], in assay [2] and in [3] was “Active” throughout. In addition, the pIC50 at Histone deacetylase 1 is 5.66; in the assay with MCF7, 5.91; in the assay on A549, under 5.70; with HCT-116 it was under 5.70; in the assay with HepG2, under 5.70; with K562, 6.26. In addition, in the assay with HEL, the pIC50 is 6.57.

As for `CN1c2ccc(F)cc2C(=O)N2CCc3c([nH]c4ccc(OCc5cccc(C(=O)Nc6ccccc6N)c5)cc34)C21` (stereo not drawn), the inhibition entry in assay [1] is “inactive”. For the same molecule, the pIC50 at Histone deacetylase 1 is 5.44; with MCF7, under 5.70; in the assay on A549, 5.88; in the assay with HCT-116, under 5.70; in the assay with HepG2, 6.38; in the assay on K562 it was 5.86. The negative logarithm of the IC50 (pIC50) with HEL was 6.18.

Turning to `CN1c2ccc(F)cc2C(=O)N2CCc3c([nH]c4ccc(OCc5ccc(C(=O)NO)cc5)cc34)C21` (stereo not drawn), the inhibition entry in [1] is “inactive”. The inhibition entry in assay [2] and in [3] was “Active” in each case. For the same molecule, the pIC50 at Histone deacetylase 1 is 7.49; in the assay with MCF7 it was 6.80; in the assay with A549, under 5.70; in the assay with HCT-116, 6.30; with HepG2, 7.01; in the assay on K562 it was 6.60. Moreover, the negative logarithm of the IC50 (pIC50) in the assay with HEL is under 5.70.

For the molecule `CN1c2ccc(F)cc2C(=O)N2CCc3c([nH]c4ccc(OCc5ccccc5C(=O)Nc5ccccc5N)cc34)C21` (stereo not drawn), in assay [1], the inhibition result was “inactive”. In addition, the negative logarithm of the IC50 (pIC50) was 5.72 on Histone deacetylase 1; 6.38 in the assay on MCF7; 6.08 in the assay on A549; 6.66 with HCT-116; 6.36 in the assay with HepG2; 6.04 in the assay with K562. Moreover, the negative-log IC50 (pIC50) with HEL was 6.09.

Consider `CC[C@@]1(O)C(=O)OCc2c1cc1n(c2=O)Cc2cc3c(CN(C)C)c(O)ccc3nc2-1` [TOPOTECAN], for which the pIC50 is 6.85 with MCF7; 5.08 in the assay with A549; 6.01 with HCT-116; 5.48 in the assay with HepG2; 6.04 in the assay with K562; 4.59 with HEL.

As to `CN1c2ccc(F)cc2C(=O)N2CCc3c([nH]c4ccc(OCc5cccc(C(=O)NO)c5)cc34)C21` (stereo not drawn), the inhibition entry in assay [1], in [2] and in assay [3] was “Active” throughout. Also, the negative logarithm of the IC50 (pIC50) on Histone deacetylase 1 is 5.72; in the assay on MCF7 it was under 5.70; with A549, under 5.70; in the assay with HCT-116 it was under 5.70; with HepG2, 5.79; with K562, under 5.70. Besides, in the assay on HEL, the negative-log IC50 (pIC50) was 6.24.

As for `CN1c2ccc(F)cc2C(=O)N2CCc3c([nH]c4ccc(OCc5ccccc5C(=O)NO)cc34)C21` (stereo not drawn), the inhibition result in assay [1], in assay [2] and in assay [3] was “Active” each time. The pIC50 is 5.21 on Histone deacetylase 1; 6.10 in the assay with MCF7; 5.92 in the assay on A549; 6.82 in the assay on HCT-116; 6.92 in the assay with HepG2; 7.07 in the assay with K562. Further, in the assay with HEL, the pIC50 is 6.54.

`CN1c2ccc(F)cc2C(=O)N2CCc3c([nH]c4ccc(OCCCCCC(=O)NO)cc34)C21` (stereo not drawn): the inhibition result in assay [1] was “inactive”. Further, the inhibition entry in [2] and in [3] was “Active” throughout. Besides, the pIC50 on Histone deacetylase 1 is 8.40; in the assay with MCF7 it was 6.82; in the assay on A549 it was 6.52; with HCT-116 it was 6.92; with HepG2 it was 6.68; in the assay on K562, 6.17. Besides, the negative logarithm of the IC50 (pIC50) in the assay with HEL was 7.00.

Regarding `CN1c2ccc(F)cc2C(=O)N2CCc3c([nH]c4ccc(OCCCCCC(=O)Nc5ccccc5N)cc34)C21` (stereo not drawn), the inhibition result in [1] was “inactive”. For the same molecule, the negative logarithm of the IC50 (pIC50) at Histone deacetylase 1 is 6.49; with MCF7, under 5.70; with A549, 6.14; in the assay with HCT-116, under 5.70; with HepG2 it was under 5.70; in the assay with K562, 5.92. The pIC50 in the assay with HEL was 5.96.

Regarding `CN1c2ccc(F)cc2C(=O)N2CCc3c([nH]c4ccc(OCc5ccc(CC(=O)NO)cc5)cc34)C21` (stereo not drawn), the inhibition result in assay [1], in [2] and in assay [3] was “Active” throughout. Besides, the pIC50 at Histone deacetylase 1 is 6.44; in the assay with MCF7, under 5.70; in the assay on A549, under 5.70; with HCT-116, under 5.70; in the assay on HepG2, 6.28; in the assay with K562, 6.74. The negative-log IC50 (pIC50) in the assay with HEL was 7.00.

On to `CN1c2ccc(F)cc2C(=O)N2CCc3c([nH]c4ccc(OCCCC(=O)Nc5ccccc5N)cc34)C21` (stereo not drawn), for which the inhibition entry in assay [1] was “inactive”. Also, the negative logarithm of the IC50 (pIC50) on Histone deacetylase 1 was 5.66; in the assay with MCF7, 4.28; in the assay on A549, 5.90; with HCT-116 it was 5.99; with HepG2, 6.80; with K562, 6.55. Moreover, the negative logarithm of the IC50 (pIC50) in the assay on HEL was 6.46.

For `CN1c2ccc(F)cc2C(=O)N2CCc3c([nH]c4ccc(OCCCCCCCC(=O)NO)cc34)C21` (stereo not drawn), the inhibition result in [1] is “Active”. Besides, the negative logarithm of the IC50 (pIC50) at Histone deacetylase 1 is 6.82; in the assay on MCF7, under 5.70; in the assay with A549, 5.80; in the assay on HCT-116 it was under 5.70; in the assay with HepG2, under 5.70; with K562 it was under 5.70. In addition, the pIC50 in the assay on HEL was 5.80. Moreover, the inhibition result in assay [3] was “inactive”.

Turning to `CN1c2ccc(F)cc2C(=O)N2CCc3c([nH]c4ccc(OCc5ccc(C(=O)Nc6ccccc6N)cc5)cc34)C21` (stereo not drawn), the inhibition result in [1] was “Active”. Moreover, the pIC50 on Histone deacetylase 1 was 7.51; with MCF7, 5.72; in the assay with A549, under 5.70; in the assay with HCT-116, under 5.70; in the assay with HepG2, 3.90; in the assay on K562 it was 6.60. The pIC50 in the assay with HEL was 7.36.

With `CN1c2ccc(F)cc2C(=O)N2CCc3c([nH]c4ccc(OCCCCC(=O)NO)cc34)C21` (stereo not drawn), the inhibition result in assay [1] is “inactive”. In addition, the inhibition entry in [2] and in assay [3] was “Active” each time. The negative logarithm of the IC50 (pIC50) on Histone deacetylase 1 was 7.68; in the assay on MCF7, 5.81; in the assay with A549 it was 6.48; with HCT-116 it was under 5.70; in the assay with HepG2, 6.09; in the assay with K562, 6.39. In addition, the pIC50 with HEL was 6.24.

Regarding `CN1c2ccc(F)cc2C(=O)N2CCc3c([nH]c4ccc(OCCCCCCC(=O)NO)cc34)C21` (stereo not drawn), the inhibition entry in assay [1], in assay [2] and in assay [3] was “Active” in each case. Further, the pIC50 on Histone deacetylase 1 is 8.52; with MCF7, 6.68; in the assay with A549, 6.20; with HCT-116, 6.08; with HepG2 it was 6.70; in the assay on K562, under 5.70. Moreover, the pIC50 in the assay on HEL is under 5.70.

In the case of `CN1c2ccc(F)cc2C(=O)N2CCc3c([nH]c4ccc(OCCCCC(=O)Nc5ccccc5N)cc34)C21` (stereo not drawn), the inhibition result in [1] is “inactive”. Further, the pIC50 on Histone deacetylase 1 is 5.68; in the assay with MCF7, 5.90; in the assay on A549, 6.09; with HCT-116, 6.22; in the assay with HepG2 it was 5.90; in the assay with K562, under 5.70. In the assay on HEL, the pIC50 is 6.14.

(Values after ChEMBL document CHEMBL5046291, “Evodiamine-Inspired Topoisomerase-Histone Deacetylase Dual Inhibitors: Novel Orally Active Antitumor Agents for Leukemia Therapy” (J Med Chem, 2022).)
